Test results taken from paper PMC5015216, “Change in decay rates of dioxin-like compounds in Yusho patients” (Environmental Health, 2016).
Read-outs that look alike come from different tables or passages of the source.

Key:
[1] = Longitudinal blood concentration / body burden in Yusho cohort 2002-2010, second-order regression of log body burden; assay type: in vivo, human (Yusho patients)
Text: The subjects were 354 patients whose blood concentration of 2,3,4,7,8-PeCDF had been measured three or more times at annual Yusho medical checkups between 2002 and 2010, i.e., 34–42 years since exposure, and for whom the period from the first to last measurement was over 4 years. We examined two chemicals: 2,3,4,7,8-PeCDF, which is the causative chemical, and octachlorodibenzodioxin (OCDD), which is a chemical found in Yusho patients but less commonly in the general public. This research was approved by Nara Medical University Ethics Committee (No. 281–2).
For the logarithm of body burden, which was calculated from concentration and weight, we examined the second derivative by second-order regression. The body burden Cit of patient i at time t is given by:1 logCit=βi+α1t+α2t^2+γ1w1it+γ2w2it
where t is the time, with t = 0 denoting 2006 (middle of the observation period), α2 is the coefficient for a second-order derivative, α1 is the first-order derivative at time t = 0, βi is the reference value for each individual, W1it is the weight and W2it is the lipid in blood (%) of patient i at time t, and γj is the coefficient for weight and lipid in blood. Aylward et al. used an estimate of body fat as volume of distribution, but we used weight and lipid in blood.
We combined all observed concentrations into equation (2):2 y=X⋅β+T⋅α+W⋅γ+ε
where y is the vector of the logarithm of dioxins and dioxin-like compounds in blood lipid concentration, Xβ is the base concentration for each patient, Tα is the change in time, Wγ is an adjustment term according to weight and lipid in blood, and ε is an observation error. X is a matrix with the total number of measurements rows and number of patient columns. T is a matrix with the total number of measurement rows and two columns, second-order and first-order for time. W is the matrix with the total number of measurement rows and two columns, weight and lipid. Equation (3) is a matrix form:3 y=XTWβαγ+ε
By solving multiple linear regressions with the lm function in R, we could estimate first- and second-order derivatives. It was assumed that patients in the same group had same trend with regard to time. […] For the case of one patient and no second-order coefficient measurements, equation (3) equals leads to an equation for estimation of decay rate:4 ka=lnCt2−lnCt1/Δt
We estimated the first- and second-order coefficients, equivalent to the decay rate and change in decay rate, for OCDD and 2,3,4,7,8-PeCDF for each patient group shown in Table 1.

[2] = cited from earlier work
[3] = patient group 2,3,4,7,8-PeCDF concentration range 0–10 pg/g lipid
[4] = patient group concentration range 0–10 pg/g lipid
[5] = patient group concentration range 10–20 pg/g lipid
[6] = patient group concentration range 20–50 pg/g lipid
[7] = patient group concentration range 50–100 pg/g lipid
[8] = patient group concentration range >100 pg/g lipid

| SMILES | Second-order coefficient (equivalent to minus change in apparent elimination rate in 2006) [1, 3] | First-order coefficient (equivalent to minus apparent elimination rate) [1, 4] | First-order coefficient (equivalent to minus apparent elimination rate) [1, 5] | Second-order coefficient (equivalent to minus change in apparent elimination rate in 2006) [1, 5] | First-order coefficient (equivalent to minus apparent elimination rate) [1, 6] | Second-order coefficient (equivalent to minus change in apparent elimination rate in 2006) [1, 6] | First-order coefficient (equivalent to minus apparent elimination rate) [1, 7] | Second-order coefficient (equivalent to minus change in apparent elimination rate in 2006) [1, 7] | First-order coefficient (equivalent to minus apparent elimination rate) [1, 8] | Second-order coefficient (equivalent to minus change in apparent elimination rate in 2006) [1, 8] | apparent half-life ([2]; Yusho patients with blood 2,3,4,7,8-PeCDF ≥50 pg/g lipid, first of two groups) | change in blood levels over time ([2]; Yusho patients with blood 2,3,4,7,8-PeCDF ≥50 pg/g lipid, second of two groups) | apparent half-life ([2]; Yusho patients, group that became larger since medical checkups began) | apparent half-life ([2]; Yusho patients, group that became smaller since medical checkups began) |
| --- | --- | --- | --- | --- | --- | --- | --- | --- | --- | --- | --- | --- | --- | --- |
| Clc1cc2oc3c(Cl)c(Cl)c(Cl)cc3c2cc1Cl [2,3,4,7,8-PeCDF, 2,3,4,7,8-pentachlorodibenzofuran] | −0.000596 | −0.004032 | −0.000462 | 0.000464 | 0.001669 | 0.000643 | −0.005452 | 0.002124 | −0.008294 | 0.001436 | ≈ 10 years | no reduction | near infinite | around 10 years |
| Clc1c(Cl)c(Cl)c2c(c1Cl)Oc1c(Cl)c(Cl)c(Cl)c(Cl)c1O2 [OCDD, octachlorodibenzodioxin] | −0.006366 | −0.01433 | −0.01954 | −0.003289 | −0.02054 | −0.001897 | −0.01224 | −0.002991 | −0.009034 | −0.004341 | – | – | – | – |
